Tests used:
[1] = target: T1, Alpha-1B adrenergic receptor (Homo sapiens, UniProt P35368); test: Agonism of human alpha-1B adrenergic receptor, expressed in rat 1 fibroblast cells; format: functional, cell-based
T1 sequence (P35368 whole entry): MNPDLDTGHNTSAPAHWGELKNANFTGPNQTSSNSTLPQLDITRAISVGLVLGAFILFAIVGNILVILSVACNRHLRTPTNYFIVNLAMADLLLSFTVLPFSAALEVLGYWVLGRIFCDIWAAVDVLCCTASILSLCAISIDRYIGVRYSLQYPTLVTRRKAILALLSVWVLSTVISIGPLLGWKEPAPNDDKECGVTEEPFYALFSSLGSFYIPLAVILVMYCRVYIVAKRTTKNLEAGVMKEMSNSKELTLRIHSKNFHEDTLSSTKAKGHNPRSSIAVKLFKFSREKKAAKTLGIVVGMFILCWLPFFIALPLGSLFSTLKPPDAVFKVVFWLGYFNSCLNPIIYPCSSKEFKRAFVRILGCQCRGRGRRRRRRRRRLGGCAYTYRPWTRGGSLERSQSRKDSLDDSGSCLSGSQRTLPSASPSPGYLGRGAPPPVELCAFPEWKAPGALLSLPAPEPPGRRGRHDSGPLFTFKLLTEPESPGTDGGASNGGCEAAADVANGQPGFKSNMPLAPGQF

[2] = target: T2, Alpha-1B adrenergic receptor (Homo sapiens) (UniProt P35368); test: Maximal response assayed via calcium mobilization to human alpha-1B adrenergic receptor compared to percent of the […] phenylephrine response.; format: functional
T2 sequence (whole entry): T1 sequence (P35368 whole entry)

[3] = target: T3, Alpha-1A adrenergic receptor (Homo sapiens) (UniProt P35348); test: Maximal response assayed via calcium mobilization to the human alpha-1A adrenergic receptor compared the percent of the […] phenylephrine response; format: functional
T3 sequence (whole entry): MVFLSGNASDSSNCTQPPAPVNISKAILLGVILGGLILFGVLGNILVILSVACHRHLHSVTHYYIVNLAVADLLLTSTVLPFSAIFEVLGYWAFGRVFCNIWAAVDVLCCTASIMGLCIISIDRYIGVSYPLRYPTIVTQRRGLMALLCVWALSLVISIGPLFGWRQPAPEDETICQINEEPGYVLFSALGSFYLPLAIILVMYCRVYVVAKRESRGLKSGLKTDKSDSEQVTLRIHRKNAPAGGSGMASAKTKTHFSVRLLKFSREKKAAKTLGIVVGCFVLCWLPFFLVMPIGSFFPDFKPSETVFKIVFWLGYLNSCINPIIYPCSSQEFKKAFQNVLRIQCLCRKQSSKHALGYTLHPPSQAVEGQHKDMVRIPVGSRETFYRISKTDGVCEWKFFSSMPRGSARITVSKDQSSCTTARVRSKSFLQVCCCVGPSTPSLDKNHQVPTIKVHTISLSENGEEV

[4] = target: T4, Alpha-1A adrenergic receptor (Homo sapiens, UniProt P35348); test: Agonism of human alpha-1A adrenergic receptor expressed in rat 1 fibroblast cells; format: functional, cell-based
T4 sequence (P35348 whole entry): T3 sequence (whole entry)

[5] = target: T5, Alpha-1D adrenergic receptor (Homo sapiens, UniProt P25100); test: Agonism of recombinant human alpha-1D adrenergic receptor, expressed in rat 1 fibroblast cells; format: functional, cell-based
T5 sequence (P25100 whole entry): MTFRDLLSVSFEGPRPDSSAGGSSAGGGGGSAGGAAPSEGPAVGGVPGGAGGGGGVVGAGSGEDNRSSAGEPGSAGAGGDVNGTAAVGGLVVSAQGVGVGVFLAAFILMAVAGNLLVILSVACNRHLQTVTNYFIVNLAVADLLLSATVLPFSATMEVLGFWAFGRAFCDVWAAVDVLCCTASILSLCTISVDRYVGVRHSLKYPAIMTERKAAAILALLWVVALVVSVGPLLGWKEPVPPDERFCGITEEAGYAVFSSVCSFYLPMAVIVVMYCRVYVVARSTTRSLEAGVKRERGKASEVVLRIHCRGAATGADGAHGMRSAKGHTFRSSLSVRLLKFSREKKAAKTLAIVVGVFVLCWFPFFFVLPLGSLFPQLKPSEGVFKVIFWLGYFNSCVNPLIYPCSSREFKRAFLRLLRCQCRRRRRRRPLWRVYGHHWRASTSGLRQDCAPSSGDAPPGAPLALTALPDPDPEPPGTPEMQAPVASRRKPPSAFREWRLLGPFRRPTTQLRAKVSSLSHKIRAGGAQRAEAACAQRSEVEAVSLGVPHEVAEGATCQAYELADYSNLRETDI

[6] = target: T6, Alpha-1D adrenergic receptor (Homo sapiens) (UniProt P25100); test: Maximal response via calcium mobilization towards Human Alpha-1D adrenergic receptor as percent rtelative to […] phenylephrine; format: functional
T6 sequence (whole entry): T5 sequence (P25100 whole entry)

[7] = target: T6, Alpha-1D adrenergic receptor (Homo sapiens); test: Maximal response via calcium mobilization towards Human Alpha-1D adrenergic receptor as percent relative to […] phenylephrine; format: functional
[8] = target: T4, Alpha-1A adrenergic receptor; test: Inhibitory concentration against radioligand binding to human Alpha-1A adrenergic receptor, expressed in rat 1 fibroblast cells; format: cell-based
[9] = target: T1, Alpha-1B adrenergic receptor; test: Inhibitory concentration against radioligand binding to human Alpha-1B adrenergic receptor, expressed in rat 1 fibroblast cells; format: cell-based
[10] = target: T5, Alpha-1D adrenergic receptor; test: Inhibitory concentration against radioligand binding to human aAlpha-1D adrenergic receptor, expressed in rat 1 fibroblast cells; format: cell-based
[11] = target: T5, Alpha-1D adrenergic receptor; test: Inhibitory concentration against radioligand binding to human Alpha-1D adrenergic receptor, expressed in rat 1 fibroblast cells; format: cell-based

Structure (SMILES)	EC50 [1]	Max response [2]	Max response [3]	EC50 [4]	EC50 [5]	Max response [6]	Max response [7]	IC50 [8]	IC50 [9]	IC50 [10]	IC50 [11]
CC(C)n1ncnc1-c1ccccc1NCC1=NCCN1	> 100 µM	0%	104%	0.00631 µM	3.16 µM	37%	–	–	–	–	–
CC(C)n1nccc1-c1ccccc1NCC1=NCCN1	> 100 µM	0%	0%	> 100 µM	> 100 µM	–	0%	–	–	–	–
CCCn1nccc1-c1ccccc1NCC1=NCCN1	> 100 µM	0%	59%	0.251 µM	> 100 µM	–	0%	–	–	–	–
CCn1ccc(-c2ccccc2NCC2=NCCN2)n1	> 100 µM	0%	78%	0.0251 µM	> 100 µM	–	0%	–	–	–	–
Cn1nccc1-c1ccccc1NCC1=NCCN1	> 100 µM	0%	108%	0.01 µM	> 100 µM	–	0%	0.2 µM	0.398 µM	–	0.501 µM
Cn1cc(-c2ccccc2NCC2=NCCN2)cn1	> 100 µM	0%	39%	0.398 µM	> 100 µM	–	0%	–	–	–	–
FC(F)(F)Cn1nccc1-c1ccccc1NCC1=NCCN1	> 100 µM	0%	76%	0.316 µM	> 100 µM	–	0%	–	–	–	–
Cn1cccc1-c1ccccc1NCC1=NCCN1	> 100 µM	0%	103%	0.02 µM	0.251 µM	–	32%	–	–	–	–
FC(F)(F)Cn1ncnc1-c1ccccc1NCC1=NCCN1	> 100 µM	0%	91%	0.0794 µM	> 100 µM	0%	–	–	–	–	–
CCn1cccc1-c1ccccc1NCC1=NCCN1	> 100 µM	0%	93%	0.00251 µM	> 100 µM	–	0%	–	–	–	–
Cc1ccc(-c2ccccc2NCC2=NCCN2)n1C	> 100 µM	0%	78%	0.0501 µM	> 100 µM	–	0%	–	–	–	–
CCn1nccc1-c1ccccc1NCC1=NCCN1	> 100 µM	0%	81%	0.0631 µM	> 100 µM	–	0%	–	–	–	–
CCn1cc(-c2ccccc2NCC2=NCCN2)cn1	> 100 µM	0%	0%	> 100 µM	> 100 µM	–	0%	–	–	–	–

Continued, values first:

EC50 [1]	Max response [2]	Max response [3]	EC50 [4]	EC50 [5]	Max response [6]	Max response [7]	IC50 [8]	IC50 [9]	IC50 [10]	IC50 [11]	Structure (SMILES)
0.0631 µM	94%	107%	0.00126 µM	0.126 µM	55%	–	–	–	–	–	CCn1ncnc1-c1ccccc1NCC1=NCCN1
> 5.01 µM	0%	87%	0.794 µM	> 5.01 µM	0%	–	–	–	–	–	Cc1n[nH]c(-c2ccccc2NCC2=NCCN2)n1
0.0398 µM	104%	88%	0.00631 µM	0.2 µM	–	92%	–	–	–	–	Cn1ccnc1-c1ccccc1NCC1=NCCN1
0.00501 µM	100%	135%	0.000794 µM	0.00398 µM	123%	–	–	–	–	–	c1ccc(-c2nc[nH]n2)c(NCC2=NCCN2)c1
0.0501 µM	33%	116%	0.00316 µM	0.0158 µM	–	29%	–	–	–	–	Cn1ccc(-c2ccccc2NCC2=NCCN2)n1
0.00501 µM	95%	104%	0.001 µM	0.02 µM	54%	–	0.0251 µM	0.158 µM	0.0398 µM	–	c1ccc(-c2cc[nH]n2)c(NCC2=NCCN2)c1
0.2 µM	83%	86%	0.2 µM	0.398 µM	66%	–	–	–	–	–	CCCCn1ncnc1-c1ccccc1NCC1=NCCN1
> 5.01 µM	0%	98%	1 µM	> 5.01 µM	0%	–	–	–	–	–	Cc1nc(-c2ccccc2NCC2=NCCN2)n(C)n1
0.0794 µM	72%	112%	0.00126 µM	0.02 µM	–	62%	–	–	–	–	c1ccc(-c2cn[nH]c2)c(NCC2=NCCN2)c1
0.316 µM	74%	96%	0.0126 µM	0.251 µM	57%	–	–	–	–	–	CCCn1ncnc1-c1ccccc1NCC1=NCCN1
0.0398 µM	93%	91%	0.002 µM	0.0631 µM	116%	–	–	–	–	–	Cn1ncnc1-c1ccccc1NCC1=NCCN1

Reference: ChEMBL document CHEMBL1145766, “2-(Anilinomethyl)imidazolines as alpha1 adrenergic receptor agonists: alpha1a subtype selective 2'-heteroaryl compounds” (Bioorg Med Chem Lett, 2003)
